This note sets out measurements from EP4678638A1, “NEW E3 UBIQUITIN LIGASE LIGAND, PROTEIN DEGRADATION AGENT AND USE THEREOF” (priority 2023, dated 2024).

Usually IC50 stands for the midpoint of a concentration-inhibition curve. Lower therefore signals greater potency. The inhibition is the percentage by which the read-out fell short of the control.

The target of this experiment is T1, human Cereblon WT GST-tagged protein (Homo sapiens, UniProt Q96SW2).
T1 construct: purchased CISBIO 64BDCRBNPEH
T1 sequence (Q96SW2 whole entry): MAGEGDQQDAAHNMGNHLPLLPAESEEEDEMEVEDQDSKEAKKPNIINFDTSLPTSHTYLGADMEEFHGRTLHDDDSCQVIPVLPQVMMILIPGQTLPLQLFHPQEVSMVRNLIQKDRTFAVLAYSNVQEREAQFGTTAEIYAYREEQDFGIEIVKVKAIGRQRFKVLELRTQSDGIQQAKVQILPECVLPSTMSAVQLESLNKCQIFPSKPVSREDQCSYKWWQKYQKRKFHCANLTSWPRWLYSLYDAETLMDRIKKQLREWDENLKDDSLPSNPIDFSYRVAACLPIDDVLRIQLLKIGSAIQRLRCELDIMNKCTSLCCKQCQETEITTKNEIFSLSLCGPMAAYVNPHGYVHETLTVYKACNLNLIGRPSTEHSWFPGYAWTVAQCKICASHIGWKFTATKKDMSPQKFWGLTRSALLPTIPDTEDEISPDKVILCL
The experiment can be described thus: CRBN binding, HTRF (CEREBLON BINDING kit). The note with it: HTRF; for IC50: Table II-1, CRBN binding; for inhibition at 0.5 µM / inhibition at 2 µM: Table II-2, CRBN binding screening; for inhibition at 0.5 µM: read-out: Inhibition rate (%) at 0.5µM; for inhibition at 2 µM: read-out: Inhibition rate (%) at 2 µM. Here is the method:
The CEREBLON BINDING kits (specification: 10,000 tests; product number: Catalog # 64BDCRBNPEH; CISBIO company) was used to determine the CRBN binding ability of the compounds to be tested through a HTRF method (homogeneous time-resolved fluorescence). The specific methods are as follows: • 1. […] Then, 2.5 µL of human Cereblon WT GST-tagged protein solution was added to each well. Finally, 5 µL of the thoroughly mixed Thalidomide-Re reagent and GST Eu antibody working solution were added to each of the aforementioned wells. […] The blank control wells were sequentially added with 2.5 µL of diluent #9 (1X) solution, 2.5 µL of binding buffer, and 5 µL of thoroughly mixed Thalidomide-Re reagent and GST Eu antibody working solution. • 4. After sealing and incubating the solutions in the aforementioned wells at room temperature for 3 hours, the […] at emission wavelengths of 620 nm and 665 nm were detected by the HTRF method using a Spark microplate reader (V3.1 SP1).
In general terms: In TR-FRET formats the signal depends on donor and acceptor labels being close together.

The compound `O=C1CCN(c2ccc(CN3CCN(C4CCN(c5ccc([C@@H]6c7ccc(O)cc7CC[C@@H]6c6ccccc6)cc5)CC4)CC3)cc2)C(=O)N1` [GT-04686, 1-(4-((4-(1-(4-((1R,2S)-6-hydroxy-2-phenyl-1,2,3,4-tetrahydronaphthalen-1-yl)phenyl)piperidin-4-yl)piperazin-1-yl)methyl)phenyl)dihydropyr imidine-2,4(1H,3H)-dione] returned an IC50 of 1 to 1.9 µM.

`O=C1CCN(c2ccc(CCl)nc2)C(=O)N1` [GT-06984, 1-(6-(Chloromethyl)pyridin-3-yl)dihydropyrimidine-2,4(1H,3H)-dione]: the inhibition at 0.5 µM was 30 to 40% and the inhibition at 2 µM lay within 60 to 80%.

For the compound `[2H]C1([2H])N(CC[C@H](CSc2ccccc2)Nc2ccc(S(=O)(=O)NC(=O)c3ccc(N4CCN(CC5=C(c6ccc(Cl)cc6)CCC(C)(C)C5)CC4)cc3)cc2S(=O)(=O)C(F)(F)F)C([2H])([2H])C([2H])([2H])N(Cc2ccc(C3CCC(=O)NC3=O)cc2)C1([2H])[2H]` (stereo partly drawn) [GT-07906, 4-(4-((4'-chloro-4,4-dimethyl-3,4,5,6-tetrahydro-[1,1'-biphenyl]-2-yl)methyl)piperazin-1-yl)-N-((4-(((2R)-4-(4-(4-(2,6-dioxopiperidin-3-yl)benzyl)piperazin-1-yl-2,2,3,3,5,5,6,6-d8)-1-(phenylthio)butan-2-yl)amino)-3-((trifluoromethyl)sulfonyl)phenyl)sulfonyl)benzamide], the inhibition at 0.5 µM is 20 to 30% and the inhibition at 2 µM was 53 to 60%.

For the compound `CC(C)(O)c1cc2nc(C3CCN(Cc4cc(C5CCC(=O)NC5=O)cnc4F)CC3)oc2cc1NC(=O)c1cccc(C(F)(F)F)n1` (stereo not drawn) [GT-07629, N-(2-(1-((5-(2,6-dioxopiperidin-3-yl)-2-fluoropyridin-3-yl)methyl)piperidin-4-yl)-5-(2-hydroxypropan-2-yl)benzo[d]oxazol-6-yl)-6-(trifluoromethyl)picolinamide], the inhibition at 0.5 µM was 60 to 80% and the inhibition at 2 µM was 80 to 100%.

For `CC(=O)c1c(C)c2cnc(Nc3ccc(N4CCN(Cc5cc(C6CCC(=O)NC6=O)cnc5F)CC4)cn3)nc2n(C2CCCC2)c1=O` (stereo not drawn) [GT-07591, 3-(5-((4-(6-((6-acetyl-8-cyclopentyl-5-methyl-7-oxo-7,8-dihydropyrido[2,3-d]pyrimidin-2-yl)amino)pyridin-3-yl)piperazin-1-yl)methyl)-6-fluoropyridin-3-yl)piperidine-2,6-dione], the inhibition at 0.5 µM fell in the range of 20 to 30% and the inhibition at 2 µM lay within 80 to 100%.

In the case of `CC(=O)c1c(C)c2cnc(Nc3ccc(N4CCN(Cc5ccc(C6CCC(=O)NC6=O)cn5)CC4)cn3)nc2n(C2CCCC2)c1=O` (stereo not drawn) [GT-07483, 3-(6-((4-(6-((6-acetyl-8-cyclopentyl-5-methyl-7-oxo-7,8-dihydropyrido[2,3-d]pyrimidin-2-yl)amino)pyridin-3-yl)piperazin-1-yl)methyl)pyridin-3-yl)piperidine-2,6-dione], the inhibition at 0.5 µM lay within 53 to 60% and the inhibition at 2 µM lay in the range of 80 to 100%.

As to `CN(c1nccnc1CNc1nc(Nc2ccc(N3CCN(Cc4ccc(C5CCC(=O)NC5=O)cc4)CC3)cc2)ncc1C(F)(F)F)S(C)(=O)=O` (stereo not drawn) [GT-07399, N-(3-(((2-((4-(4-(4-(2,6-dioxopiperidin-3-yl)benzyl)piperazin-1-yl)phenyl)amino)-5-(trifluoromethyl)pyrimidin-4-yl)amino)methyl)pyrazin-2-yl)-N-methylmethanesulfonamide], the inhibition at 0.5 µM is 10 to 20% and the inhibition at 2 µM was 60 to 80%.

As for `O=C1CCN(c2ccc(CN3CCN(C4CCN(c5ccc([C@@H]6c7ccc(O)cc7CC[C@@H]6c6ccccc6)cc5)CC4)CC3)c(F)c2)C(=O)N1` [GT-04687, 1-(3-fluoro-4-((4-(1-(4-((1R,2S)-6-hydroxy-2-phenyl-1,2,3,4-tetrahydronaphthalen-1-yl)phenyl)piperidin-4-yl)piperazin-1-yl)methyl)phenyl)dihydropyr imidine-2,4(1H,3H)-dione], the IC50 is 1 to 1.9 µM.

Consider `O=C1CCN(c2cnc(F)c(CN3CCC(n4cc(NC(=O)c5cnn6ccc(N7C[C@H]8C[C@@H]7CO8)nc56)c(C(F)F)n4)CC3)c2)C(=O)N1` [GT-07791, 5-((1R,4R)-2-oxa-5-azabicyclo[2.2.1]heptan-5-yl)-N-(3-(difluoromethyl)-1-(1-((5-(2,4-dioxotetrahydropyrimidin-1(2H)-yl)-2-fluoropyridin-3-yl)methyl)piperidin-4-yl)-1H-pyrazol-4-yl)pyrazolo[1,5-a]pyrimidine-3-carboxamide], for which the inhibition at 0.5 µM was 30 to 40% and the inhibition at 2 µM is 60 to 80%.

`O=C1CCC(c2ccc(CN3CCC(n4cc(NC(=O)c5cnn6ccc(N7CCOCC7)nc56)c(C(F)F)n4)CC3)nc2)C(=O)N1` (stereo not drawn) [GT-07769, N-(3-(difluoromethyl)-1-(1-((5-(2,6-dioxopiperidin-3-yl)pyridin-2-yl)methyl)piperidin-4-yl)-1H-pyrazol-4-yl)-5-morpholinopyrazolo[1,5-a]pyrimidine-3-carboxamide]: the inhibition at 0.5 µM lay in the range of 40 to 53% and the inhibition at 2 µM lay within 80 to 100%.

On to `O=C1CCC(c2cc(CN3CCC(n4cc(NC(=O)c5cnn6ccc(N7C[C@H]8C[C@@H]7CO8)nc56)c(C(F)F)n4)CC3)ccn2)C(=O)N1` (stereo partly drawn) [GT-07776, 5-((1R,4R)-2-oxa-5-azabicyclo[2.2.1]heptan-5-yl)-N-(3-(difluoromethyl)-1-(1-((2-(2,6-dioxopiperidin-3-yl)pyridin-4-yl)methyl)piperidin-4-yl)-1H-pyrazol-4-yl)pyrazolo[1,5-a]pyrimidine-3-carboxamide], for which the inhibition at 0.5 µM was 20 to 30% and the inhibition at 2 µM lay in the range of 60 to 80%.

`CN(c1nccnc1CNc1nc(Nc2ccc(N3CCN(Cc4ccc(N5CCC(=O)NC5=O)cn4)CC3)cc2)ncc1C(F)(F)F)S(C)(=O)=O` [GT-07403, N-(3-(((2-((4-(4-((5-(2,4-dioxotetrahydropyrimidin-1(2H)-yl)pyridin-2-yl)methyl)piperazin-1-yl)phenyl)amino)-5-(trifluoromethyl)pyrimidin-4-yl)amino)methyl)pyrazin-2-yl)-N-methylmethanesulfonamide]: the inhibition at 0.5 µM was in the range of 30 to 40% and the inhibition at 2 µM fell in the range of 60 to 80%.

As to `CN(C)C(=O)c1cc2cnc(Nc3ccc(N4CCN(Cc5cc(C6CCC(=O)NC6=O)cnc5F)CC4)cn3)nc2n1C1CCCC1` (stereo not drawn) [GT-07563, 7-cyclopentyl-2-((5-(4-((5-(2,6-dioxopiperidin-3-yl)-2-fluoropyridin-3-yl)methyl)piperazin-1-yl)pyridin-2-yl)amino)-N,N-dimethyl-7H-pyrrolo[2,3-d]pyrimidine-6-carboxamide], the inhibition at 0.5 µM lay within 20 to 30% and the inhibition at 2 µM is 60 to 80%.

`O=C1CCC(c2ccc(CN3CCC(n4cc(NC(=O)c5cnn6ccc(N7C[C@H]8C[C@@H]7CO8)nc56)c(C(F)F)n4)CC3)nc2)C(=O)N1` (stereo partly drawn) [GT-07777, 5-((1R,4R)-2-oxa-5-azabicyclo[2.2.1]heptan-5-yl)-N-(3-(difluoromethyl)-1-(1-((5-(2,6-dioxopiperidin-3-yl)pyridin-2-yl)methyl)piperidin-4-yl)-1H-pyrazol-4-yl)pyrazolo[1,5-a]pyrimidine-3-carboxamide]: the inhibition at 0.5 µM was in the range of 53 to 60% and the inhibition at 2 µM was in the range of 80 to 100%.

For the compound `O=C1CCC(c2cnc(F)c(CN3CCC(n4cc(NC(=O)c5cnn6ccc(N7CCOCC7)nc56)c(C(F)F)n4)CC3)c2)C(=O)N1` (stereo not drawn) [GT-07767, N-(3-(difluoromethyl)-1-(1-((5-(2,6-dioxopiperidin-3-yl)-2-fluoropyridin-3-yl)methyl)piperidin-4-yl)-1H-pyrazol-4-yl)-5-morpholinopyrazolo[1,5-a]pyrimidine-3-carboxamide], the inhibition at 0.5 µM is 40 to 53% and the inhibition at 2 µM was 80 to 100%.

For `O=C1CCC(c2cncc(CN3CCC(n4cc(NC(=O)c5cnn6ccc(N7C[C@H]8C[C@@H]7CO8)nc56)c(C(F)F)n4)CC3)c2)C(=O)N1` (stereo partly drawn) [GT-07778, 5-((1R,4R)-2-oxa-5-azabicyclo[2.2.1]heptan-5-yl)-N-(3-(difluoromethyl)-1-(1-((5-(2,6-dioxopiperidin-3-yl)pyridin-3-yl)methyl)piperidin-4-yl)-1H-pyrazol-4-yl)pyrazolo[1,5-a]pyrimidine-3-carboxamide], the inhibition at 0.5 µM lay in the range of 40 to 53% and the inhibition at 2 µM was in the range of 80 to 100%.

With `O=C1CCN(c2cnc(CN3CCN(c4ccc(-c5cc(F)c6c(c5)C(=O)N(C(C(=O)Nc5nccs5)c5ncn7c5CCC7)C6)cc4)CC3)cn2)C(=O)N1` (stereo not drawn) [GT-07761, 2-(6,7-dihydro-5H-pyrrolo[1,2-c]imidazol-1-yl)-2-(6-(4-(4-((5-(2,4-dioxotetrahydropyrimidin-1(2H)-yl)pyrazin-2-yl)methyl)piperazin-1-yl)phenyl)-4-fluoro-1-oxoisoindolin-2-yl)-N-(thiazol-2-yl)acetamide], the inhibition at 0.5 µM is 20 to 30% and the inhibition at 2 µM lay within 53 to 60%.

`O=C1CCN(c2ccc(CN3CCN(C4CCN(c5ccc([C@@H]6c7ccc(O)cc7CC[C@@H]6c6ccccc6)cc5)CC4)CC3)cc2F)C(=O)N1` [GT-04738, 1-(2-fluoro-4-((4-(1-(4-((1R,2S)-6-hydroxy-2-phenyl-1,2,3,4-tetrahydronaphthalen-1-yl)phenyl)piperidin-4-yl)piperazin-1-yl)methyl)phenyl)dihydropyr imidine-2,4(1H,3H)-dione] returned an IC50 of 1 to 1.9 µM.
